The text below walks through data of ChEMBL document CHEMBL2029240 (ACS Med Chem Lett, 2011).

For series [1], the target named is T1, C-C chemokine receptor type 2 (Homo sapiens, UniProt P41597).
Description: Displacement of [125I]MCP1 from human CCR2 in PBMC after 30 mins by gamma counting
The next series concerns the target hERG (KCNH2) (Homo sapiens, UniProt Q12809). The series is described as follows: Inhibition of human ERG at 10 uM by patch clamp assay. (The patch-clamp technique gives a direct electrical read-out from membranes.)
Series [2] addresses Voltage-gated inwardly rectifying potassium channel KCNH2 (Homo sapiens, UniProt Q12809). The series is described as follows: Displacement of [3H]dofetilide from human ERG. (In general: In a radioligand displacement assay an active substance lowers the binding of a labelled ligand.)
Series [3] deals with T1, C-C chemokine receptor type 2. In words: Antagonist activity at CCR2 receptor in human whole blood assessed as inhibition of alexa-tagged MCP-induced effect 30 mins by flow cytometry. It counts as functional, tissue-based.

Each structure is given as a SMILES string.

Voltage-gated inwardly rectifying potassium channel KCNH2, sequence (Q12809 whole entry): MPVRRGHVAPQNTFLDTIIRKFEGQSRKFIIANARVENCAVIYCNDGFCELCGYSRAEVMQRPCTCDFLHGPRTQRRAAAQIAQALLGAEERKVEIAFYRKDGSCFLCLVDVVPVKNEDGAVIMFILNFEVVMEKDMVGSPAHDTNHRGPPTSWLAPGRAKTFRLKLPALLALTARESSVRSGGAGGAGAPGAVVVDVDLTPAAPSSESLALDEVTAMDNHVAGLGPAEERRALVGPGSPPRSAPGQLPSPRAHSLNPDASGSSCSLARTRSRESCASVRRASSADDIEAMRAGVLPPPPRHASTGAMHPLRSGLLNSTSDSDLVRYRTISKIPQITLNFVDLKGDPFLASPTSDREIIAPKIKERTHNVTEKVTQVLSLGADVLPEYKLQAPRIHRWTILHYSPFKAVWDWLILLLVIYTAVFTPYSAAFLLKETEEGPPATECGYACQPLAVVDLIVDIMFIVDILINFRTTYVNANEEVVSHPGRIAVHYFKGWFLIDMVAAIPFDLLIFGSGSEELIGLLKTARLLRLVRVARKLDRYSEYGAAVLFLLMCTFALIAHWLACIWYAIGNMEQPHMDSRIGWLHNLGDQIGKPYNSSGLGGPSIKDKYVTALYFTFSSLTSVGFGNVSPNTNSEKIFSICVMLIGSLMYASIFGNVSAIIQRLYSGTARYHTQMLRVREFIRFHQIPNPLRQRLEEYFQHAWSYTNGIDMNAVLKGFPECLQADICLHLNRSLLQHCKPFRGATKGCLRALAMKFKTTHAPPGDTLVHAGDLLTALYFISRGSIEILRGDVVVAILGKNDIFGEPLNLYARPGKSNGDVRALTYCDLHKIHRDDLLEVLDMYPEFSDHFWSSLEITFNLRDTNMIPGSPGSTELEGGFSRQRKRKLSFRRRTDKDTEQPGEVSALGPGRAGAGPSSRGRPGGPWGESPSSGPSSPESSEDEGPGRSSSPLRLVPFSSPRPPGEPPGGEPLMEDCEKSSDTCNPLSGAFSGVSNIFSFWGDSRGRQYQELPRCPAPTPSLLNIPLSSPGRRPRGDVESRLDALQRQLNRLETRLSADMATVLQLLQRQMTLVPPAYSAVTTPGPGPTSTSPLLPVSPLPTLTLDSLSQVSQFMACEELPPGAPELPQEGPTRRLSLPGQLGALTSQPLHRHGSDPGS
hERG (KCNH2), sequence (Q12809 whole entry): as above
T1 sequence (P41597 whole entry): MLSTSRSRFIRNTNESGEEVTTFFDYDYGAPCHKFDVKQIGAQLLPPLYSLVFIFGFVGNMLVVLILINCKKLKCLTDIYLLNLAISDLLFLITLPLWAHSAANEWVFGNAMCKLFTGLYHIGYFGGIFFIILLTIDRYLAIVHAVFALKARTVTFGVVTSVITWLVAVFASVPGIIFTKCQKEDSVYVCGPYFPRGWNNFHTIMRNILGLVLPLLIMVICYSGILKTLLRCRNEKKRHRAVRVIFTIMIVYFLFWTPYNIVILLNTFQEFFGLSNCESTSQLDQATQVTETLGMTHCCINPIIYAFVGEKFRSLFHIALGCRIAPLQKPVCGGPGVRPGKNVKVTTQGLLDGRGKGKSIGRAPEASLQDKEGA

On to `O=C(NCC(=O)N1CC[C@@H](N[C@H]2CC[C@@H](c3ccccc3)CC2)C1)c1cccc(C(F)(F)F)c1`, for which, in series [1], the half-inhibitory concentration (IC50) – broadly, the point on the concentration scale where inhibition reaches its midpoint – is 860 nM. Same read-out and setting: to `O=C(NCC(=O)N1CC[C@H](N[C@H]2CC[C@@H](c3ccccc3)CC2)C1)c1cccc(C(F)(F)F)c1` belongs 35 nM. As to `CN([C@H]1CCN(C(=O)CNC(=O)c2cccc(C(F)(F)F)c2)C1)[C@H]1CC[C@@H](c2ccccc2)CC1`, the IC50 in series [1] was 84 nM. Turning to `O=C(NCC(=O)N1CC[C@H](N[C@H]2CC[C@@](O)(c3ccccc3)CC2)C1)c1cccc(C(F)(F)F)c1`, in series [1], 65 nM corresponded to half-maximal inhibition (IC50).

Take `COc1ccc([C@]2(O)CC[C@H](N[C@H]3CCN(C(=O)CNC(=O)c4cccc(C(F)(F)F)c4)C3)CC2)cn1`: the midpoint of inhibition in series [1], the IC50, lay at 95 nM. `O=C(NCC(=O)N1CC[C@H](N[C@H]2CC[C@@](O)(c3ccccn3)CC2)C1)c1cccc(C(F)(F)F)c1`: the inhibition (as a rule, how much of the control response was suppressed) at 10 µM against hERG (KCNH2) was found to be 34%. This molecule returned an IC50 in series [2] of over 30000 nM. As for `O=C(NCC(=O)N1CC[C@H](N[C@H]2CC[C@@](O)(c3nccs3)CC2)C1)c1cccc(C(F)(F)F)c1`, the midpoint of inhibition in series [1], the IC50, lay at 18 nM.

As for `Cc1ccc([C@]2(O)CC[C@H](N[C@H]3CCN(C(=O)CNC(=O)c4cccc(C(F)(F)F)c4)C3)CC2)nc1`, the inhibition at 10 µM against hERG (KCNH2) worked out at 71%. In series [2], this molecule registered an IC50 of 24000 nM. `O=C(NCC(=O)N1CC[C@H](N[C@H]2CC[C@@](O)(c3ccc(-c4cccnc4)cn3)CC2)C1)c1cccc(C(F)(F)F)c1` returned an IC50 in series [2] of 30000 nM. Take `O=C(NCC(=O)N1CC[C@H](N[C@H]2CC[C@@](O)(c3ccc(-c4cnccn4)cn3)CC2)C1)c1cccc(C(F)(F)F)c1`: 10 µM produced 70% inhibition on hERG (KCNH2). In series [2], this molecule showed an IC50 of over 30000 nM. Regarding `O=C(NCC(=O)N1CC[C@H](N[C@H]2CC[C@@](O)(c3ccc(-c4nccs4)cn3)CC2)C1)c1cccc(C(F)(F)F)c1`, at hERG (KCNH2), the inhibition at 10 µM was determined as 85%. The molecule further gave an IC50 in series [2] of over 30000 nM. For the molecule `O=C(C1CCN(c2cccc(C(F)(F)F)c2)CC1)N1CC[C@H](N[C@H]2CC[C@@](O)(c3ccc(-c4ncccn4)cn3)CC2)C1`, the IC50 worked out at 37 nM in series [3], 3.6 nM in series [1] and 9000 nM in series [2]. Regarding `O=C(C1CCN(c2cccc(C(F)(F)F)n2)CC1)N1CC[C@H](N[C@H]2CC[C@@](O)(c3ccc(-c4ncccn4)cn3)CC2)C1`, the IC50 turned out to be 88 nM in series [3] and 4.5 nM in series [1]. As to `O=C(C1CCN(c2cc(C(F)(F)F)ccn2)CC1)N1CC[C@H](N[C@H]2CC[C@@](O)(c3ccc(-c4ncccn4)cn3)CC2)C1`, the IC50 was found to be 12 nM in series [3], 3.3 nM in series [1] and 28000 nM in series [2]. As to `O=C(C1CCN(c2nccc(C(F)(F)F)n2)CC1)N1CC[C@H](N[C@H]2CC[C@@](O)(c3ccc(-c4ncccn4)cn3)CC2)C1`, the IC50 in series [3] came out at 29 nM; in series [1], 5.4 nM. `O=C(C1CCN(c2cc(C(F)(F)F)ncn2)CC1)N1CC[C@H](N[C@H]2CC[C@@](O)(c3ccc(-c4ncccn4)cn3)CC2)C1`: the IC50 in series [3] was 40 nM; in series [1], 10 nM; in series [2], over 30000 nM. For the molecule `N#Cc1ccnc(N2CCC(C(=O)N3CC[C@H](N[C@H]4CC[C@@](O)(c5ccc(-c6ncccn6)cn5)CC4)C3)CC2)c1`, the IC50 turned out to be 33 nM in series [3] and 11 nM in series [1].

For the molecule `O=C(N1CC[C@H](N[C@H]2CC[C@@](O)(c3ccc(-c4ncccn4)cn3)CC2)C1)C1(O)CCN(c2cc(C(F)(F)F)ccn2)CC1`, the results for the IC50 in series [3], in series [1] and in series [2] were 33 nM, 3.3 nM and over 30000 nM, respectively.
